Reference: article PMC2867956, “Interdomain Interactions Control Ca^2+-Dependent Potentiation in the Cation Channel TRPV4” (PLoS ONE, 2010)
Entries after “also recorded” stand apart in the source; their conditions may differ. No end group written: not given here.

Tests used:
CaM/C2 complex = experiment: AlphaScreen competition, C2-Flag/CaM-biotin complex; type: binding, human; conditions: C2-Flag and CaM-biotin at 100 µM Ca^2+; untagged competitor; AlphaScreen pH 7.4, 90 min room temperature
Description: (§1) AlphaScreen acceptor and donor beads were coated with C2-Flag and either P2-biotin (Fig. 7D) or CaM-biotin at 100 µM Ca^2+ (Fig. 7E) and incubated with untagged C2 or N2 competitor proteins at the indicated concentrations. […] A similar finding was observed when the CaM/C2 interaction was subjected to competition by C2 or N2 (Fig. 7E).
(§2) Proteins were expressed in E. coli, affinity purified and biotinylated if applicable (for details see Methods S1). For protein interaction measurements, a proximity assay system based on the AlphaScreen technology (PerkinElmer) was used (see Methods S1). Briefly, streptavidin-coated AlphaScreen donor and anti-Flag acceptor beads at a final concentration of 16.7 µg/ml were incubated in a 384-well plate format (OptiPlate-384, PerkinElmer) with C2-GST-biotin or P2-biotin and the respective Flag-tagged interaction protein at concentrations of 10 nM, if not otherwise indicated. Assay buffer conditions were 50 mM Tris, pH 7.4, 100 mM KCl, and 0.1% BSA. After incubation for 90 min at room temperature, the AlphaScreen output signal was recorded in a Fusion alpha FP instrument (PerkinElmer) at 2 s reading time per well. AlphaScreen signals are given as mean±SEM in counts per second (cps) units.
Proteins used for competition experiments were subjected to gel filtration into the assay buffer using a PD-10 column (Amersham).

N2 = experiment: Gel filtration, N2 dimerization; type: physicochemical, human; conditions: non-denaturing, 50 mM sodium phosphate pH 7.0, 200 mM KCl
Description: Purified proteins or gel filtration standard (BioRad) were loaded onto a Bio-Sil 250 (BioRad) size exclusion chromatography column and eluted with a buffer containing 50 mM sodium phosphate, pH 7.0 and 200 mM KCl. The elution profile was recorded by continuous absorption measurement at 280 nm.

P2/C2 complex = experiment: AlphaScreen competition, C2-Flag/P2-biotin complex; type: binding, human; conditions: read-out: IC50, competition of P2/C2 complex; C2-Flag and P2-biotin; untagged competitor; AlphaScreen pH 7.4, 90 min room temperature
Excerpt: (§3) First, we did a complementation experiment to test whether a CaM molecule that binds to the C2 fragment of TRPV4 through its C-lobe can form an additional interaction with another CaM binding domain thus forming a ternary complex. […] We used an AlphaScreen-based proximity assay (Fig. 2, Methods S1) in which the acceptor beads were coated with the C-terminal fragment C2-Flag, and the donor beads either with the N-terminal CaM binding peptide P2-biotin, or, as a negative control, with C2-biotin. The interaction between the proteins was measured in the presence of increasing CaM concentrations in 100 µM Ca^2+ or 1 mM EGTA (Fig. 3A).
as §1
Proteins were expressed in E. coli, affinity purified and biotinylated if applicable (for details see Methods S1). For protein interaction measurements, a proximity assay system based on the AlphaScreen technology (PerkinElmer) was used (see Methods S1). […] After incubation for 90 min at room temperature, the AlphaScreen output signal was recorded in a Fusion alpha FP instrument (PerkinElmer) at 2 s reading time per well. […]

TRPV4 C2 fragment = experiment: AlphaScreen interdomain interaction with C2; type: binding, human; conditions: 10 nM C2-biotin, N2-Flag 30 pM to 1.5 µM, N3 data not shown
Excerpt: as §3
In an AlphaScreen interaction experiment, donor and acceptor beads were incubated with 10 nM C2-biotin and N2-Flag at concentrations ranging from 30 pM to 1.5 µM, respectively (Fig. 3C).
as §2
The expression plasmids containing the cDNA for CaM or TRPV4 fragments in the pGEX-2TK vector (Amersham) or a modified derivative that contains an in-frame Flag epitope 5’ to the multiple cloning site were transformed into the BL21(DE3) Escherichia coli host, and protein expression was induced by 200 mg/ml IPTG at an OD600 of 0.6. […] The GST-Flag fusion proteins were eluted with 50 mM Tris, pH 8.5, 100 mM KCl, and 10 mM glutathione. […] The purity of all proteins was confirmed by SDS-polyacrylamide gel electrophoresis and Coomassie staining, and the protein concentration determined by the method according to Bradford using an albumin concentration standard. […]
To establish an improved interaction assay, that allows the quantification of protein interactions on a medium to high throughput scale, a commercially available proximity assay system based on the AlphaScreen (Amplified Luminescent Proximity Homogenous Assay) technology (PerkinElmer) was modified. […]

N2 mutant WIA = experiment: AlphaScreen N-terminal homologous interaction, N2 mutant WIA; type: binding, human; conditions: nominally Ca^2+-free buffers
Description: (§4) Proteins were expressed in E. coli, affinity purified and biotinylated if applicable (for details see Methods S1). For protein interaction measurements, a proximity assay system based on the AlphaScreen technology (PerkinElmer) was used (see Methods S1). […] Assay buffer conditions were 50 mM Tris, pH 7.4, 100 mM KCl, and 0.1% BSA. After incubation for 90 min at room temperature, the AlphaScreen output signal was recorded in a Fusion alpha FP instrument (PerkinElmer) at 2 s reading time per well. AlphaScreen signals are given as mean±SEM in counts per second (cps) units.

wild type N2 fragment = experiment: AlphaScreen N-terminal homologous interaction, wild type N2; type: binding, human; conditions: nominally Ca^2+-free buffers
Description: as §4

Substance | IC50 (CaM/C2 complex) [nM] | oligomeric state (N2) | IC50 (P2/C2 complex) [nM] | interaction with C2 (TRPV4 C2 fragment) | binding of P2 to N2 mutant WIA (N2 mutant WIA) | binding of P2 to wild type N2 (wild type N2 fragment)
N2: N-terminal TRPV4 fragment, residues 79-138 (VPNPIDLLESTLYESSVVPGPKKAPMDSLFDYGTYRHHSSDNKRWRKKIIEKQPQSPKAP; also: Flag tag; UniProt Q9HBA0 79-138, looked up, fragment) | 522 | a single peak was detected at a size that corresponds to the dimeric form; also recorded: monophasic elution profile with an apparent molecular size that corresponds with a dimeric form of the protein | 166 | interdomain interaction could also be shown |  | 
P2: N-terminal CaM binding peptide of TRPV4, residues 117-136 |  |  |  |  | bound strongly | bound strongly
